Source: EPA's aquatic toxicity sets

Tested on: Daphnia magna
Experiment: 48 h LC50 (-log10 mol/L); higher = more toxic

SMILES	48 h LC50 (-log10 mol/L)
CC(C)(C)NC(=O)[C@@H]1C[C@@H]2CCCC[C@@H]2CN1C[C@@H](O)[C@H](Cc1ccccc1)NC(=O)[C@H](CC(N)=O)NC(=O)c1ccc2ccccc2n1	4.27
CO/N=C(/C(=O)OC)c1ccccc1CO/N=C(\C)c1cccc(C(F)(F)F)c1	5.74
CBr	4.63
Nc1ccn([C@H]2CC[C@@H](CO)O2)c(=O)n1	2.07
O=C(O)c1cc(Oc2ccc(C(F)(F)F)cc2Cl)ccc1[N+](=O)[O-]	4.26
CCNc1nc(Cl)nc(NCC)n1	3.33
Nc1cc(Cl)c(Cl)cc1Cl	4.76
CC(C)CC[C@@H](O)[C@](C)(O)[C@H]1CC[C@@]2(O)C3=CC(=O)[C@@H]4C[C@@H](O)[C@@H](O)C[C@]4(C)[C@H]3CC[C@]12C	6.42
CN(C)C(=O)Nc1ccc(Oc2ccc(Cl)cc2)cc1	4.99
CSc1nc(NC2CC2)nc(NC(C)(C)C)n1	4.49
COc1cccc(N)c1	5.64
Cc1ccc(C(=O)c2cc(O)c(O)c([N+](=O)[O-])c2)cc1	4.14
Clc1cc(Cl)c(Cl)c(Cl)c1	4.87
Clc1ccc(Cl)c(-c2cc(Cl)ccc2Cl)c1	6.99
CC(C)NCC(O)COc1ccc(CC(N)=O)cc1 (configuration not stated)	3.9
CN1C(=O)CN=C(c2ccccc2)c2cc(Cl)ccc21	4.82
O=S1(=O)C=Cc2ccccc21	4.07
CNC(=O)Oc1cccc2c1OC(C)(C)O2	6.88
O=C1CNC(=S)N1	3.77
C[C@]12C/C(=C/O)C(=O)C[C@@H]1CC[C@@H]1[C@@H]2CC[C@@]2(C)[C@H]1CC[C@]2(C)O	4.54
Clc1cc(Cl)c(-c2cc(Cl)c(Cl)cc2Cl)cc1Cl	8.44
CCCCCCCCCC	5.3
C[C@]12CC[C@H]3[C@@H](CCC4=CC(=O)CC[C@@]43C)[C@@H]1CC[C@@H]2O	5.17

SMILES	48 h LC50 (-log10 mol/L)
C=C[C@]1(C)C[C@@H](OC(=O)CSC2C[C@H]3CC[C@@H](C2)N3C)[C@]2(C)[C@H](C)CC[C@]3(CCC(=O)[C@H]32)[C@@H](C)[C@@H]1O (some centres not stated)	4.11
NC(=O)N1c2ccccc2C=Cc2ccccc21	4.23
Cc1csc2ccccc12	4.76
O=C(O)/C=C\C(=O)O	2.76
c1ccc2c(c1)ccc1ccccc12	5.41
Cc1ccc(Cl)cc1	4.93
O=S1(=O)OCC2C(CO1)C1(Cl)C(Cl)=C(Cl)C2(Cl)C1(Cl)Cl (configuration not stated)	5.3
CCCS	6.1
Clc1cc(Cl)c(-c2ccccc2)cc1Cl	5.64
CC(c1ccc(Cl)cc1)c1ccc(Cl)cc1	6.86
CC(C)OC(=O)Nc1cccc(Cl)c1	4.76
COC(=O)Nc1cccc(OC(=O)Nc2cccc(C)c2)c1	4.65
CCOP(=O)(OCC)OC(=CCl)c1ccc(Cl)cc1Cl	6.56
c1ccc2c(c1)ccc1sc3ccccc3c12	6.03
CC(C)CCCCCCCCCCNCCCCCCCCCCC(C)C	6.54
C=C1C[C@]23C[C@@]1(O)CC[C@H]2[C@@]12C=C[C@H](O)[C@@](C)(C(=O)O1)[C@H]2[C@@H]3C(=O)O	4.19
CN=C(NC#N)NCCSCc1nc[nH]c1C	2.53
c1ccc2sc(SSc3nc4ccccc4s3)nc2c1	3.62
COc1c(Cl)c(Cl)c(Cl)c(Cl)c1Cl	7.01
NC[C@@H]1O[C@H](O[C@H]2[C@@H](O)[C@H](O[C@@H]3[C@@H](O)[C@H](N)C[C@H](N)[C@H]3O[C@H]3O[C@H](CO)[C@@H](O)[C@H](O)[C@H]3N)O[C@@H]2CO)[C@H](N)[C@@H](O)[C@@H]1O	3.09
Cc1c(COC(=O)[C@@H]2[C@H](/C=C(\Cl)C(F)(F)F)C2(C)C)cccc1-c1ccccc1	8.11
Cc1ccc(Cl)cc1[N+](=O)[O-]	4.27
S=P(N1CC1)(N1CC1)N1CC1	2.54

SMILES	48 h LC50 (-log10 mol/L)
c1cc2ccc3cccc4ccc(c1)c2c34	6.17
CC(C)(C)NC(=O)[C@H]1CC[C@H]2[C@@H]3CC[C@H]4NC(=O)C=C[C@]4(C)[C@H]3CC[C@]12C	4.25
ClCCCCl	2.61
NC(N)=Nc1nc(CSCC/C(N)=N/S(N)(=O)=O)cs1	2.93
O=c1[nH]cc(F)c(=O)[nH]1	3.72
C1CCNCC1	3.93
Cc1cc(C)cc(OCC2CNC(=O)O2)c1 (configuration not stated)	3.47
NC(=O)N/N=C/c1ccc([N+](=O)[O-])o1	3.84
COCC(C)OC(C)=O (configuration not stated)	2.51
CCCCN(CC)C(=O)SCCC	4.47
COC(=O)C1=C(C)NC(C)=C(C(=O)OCC(C)C)C1c1ccccc1[N+](=O)[O-] (configuration not stated)	4.07
O=C(NC(=O)c1c(F)cccc1F)Nc1ccc(Cl)cc1	7.8
Cc1cn([C@H]2C=C[C@@H](CO)O2)c(=O)[nH]c1=O	2.36
CC(C)C1OCC=CCO1	2.27
O=S(=O)(c1ccc(Cl)cc1)c1cc(Cl)c(Cl)cc1Cl	4.71
CN(C)C(=N)N=C(N)N	1.98
CCCCOCCOCCOCc1cc2c(cc1CCC)OCO2	5.29
COc1cc(Cl)c(Cl)c(Cl)c1O	5.37
O=S1(=O)c2ccccc2-c2ccccc21	4.57
CCCCC(CC)COC(=O)CCCCC(=O)OCC(CC)CCCC (configuration not stated)	5.75
O=C1CN=C(c2ccccc2Cl)c2cc([N+](=O)[O-])ccc2N1	4.02
Cc1cccc([N+](=O)[O-])c1C	4.56
Oc1ccc(Cl)cc1Cl	4.8

SMILES	48 h LC50 (-log10 mol/L)
Clc1ccc(-c2ccc(Cl)c(Cl)c2)cc1Cl	8.16
CCCSc1ccc2nc(NC(=O)OC)[nH]c2c1	7.04
CCC(Cl)Cl	3.63
CCS	5.56
O=[N+]([O-])c1ccc(Cl)c([N+](=O)[O-])c1	5.4
O=CCCCC=O	3.79
CCOC(=O)c1ocnc1C	2.67
Cc1cc(Cl)cc(Cl)c1O	5.63
COc1ccc2nc(S(=O)Cc3ncc(C)c(OC)c3C)[nH]c2c1 (configuration not stated)	3.59
COc1ccc2cc([C@H](C)C(=O)O)ccc2c1	3.79
CCCCCCCCCCC[C@@H](C[C@@H]1OC(=O)[C@H]1CCCCCC)OC(=O)[C@H](CC(C)C)NC=O	4.85
Brc1ccc(Oc2cc(Br)c(Br)cc2Br)c(Br)c1	7.02
CC1(C)[C@H](/C=C(\Cl)C(F)(F)F)[C@@H]1C(=O)O[C@@H](C#N)c1cccc(Oc2ccccc2)c1	8.68
Oc1cc(Cl)c(Cl)c(Cl)c1	5.46
c1ccc2c(c1)Cc1ccccc1O2	3.95
c1ccc2c(c1)ccc1oc3ccccc3c12	4.74
CCCC1COC(Cn2cncn2)(c2ccc(Cl)cc2Cl)O1 (configuration not stated)	4.72
COc1ccccc1O	3.68
CC(C)C(=O)Nc1ccc([N+](=O)[O-])c(C(F)(F)F)c1	5.3
CN1CCCC1=O	4.91
O=[N+]([O-])c1ccc(Cl)cc1	4.31
CC(Cc1ccc(C(C)(C)C)cc1)CN1C[C@@H](C)O[C@@H](C)C1 (some centres not stated)	5.1
CC(=O)OCC(CCn1cnc2cnc(N)nc21)COC(C)=O	2.59

SMILES	48 h LC50 (-log10 mol/L)
Clc1cccc(Cl)c1Cl	4.75
COCC(C)O (configuration not stated)	0.59
CC(C)(C)NCC(O)COc1cccc2c1C[C@H](O)[C@H](O)C2 (some centres not stated)	3.28
CN(C)C(N)=S	3.39
O=NN(c1ccccc1)c1ccccc1	4.4
CC(OC(=O)c1cc(Oc2ccc(C(F)(F)F)cc2Cl)ccc1[N+](=O)[O-])C(=O)O (configuration not stated)	4.5
CCC(CC)Nc1c([N+](=O)[O-])cc(C)c(C)c1[N+](=O)[O-]	3.73
CC(C)NCC(O)c1ccc(NS(C)(=O)=O)cc1 (configuration not stated)	2.96
FC(F)C(F)(F)OCC(Cn1cncn1)c1ccc(Cl)cc1Cl (configuration not stated)	4.71
Cn1cc(-c2ccccc2)c(=O)c(-c2cccc(C(F)(F)F)c2)c1	4.9
CCCCC(CC)COP(=O)(Oc1ccccc1)Oc1ccccc1 (configuration not stated)	6.38
CCNC(=S)NCC	2.84
C/C=C(\C)C(=O)O[C@H]1C[C@@H](OC(C)=O)[C@@]2(C(=O)OC)CO[C@H]3[C@@H](O)[C@@](C)([C@]45O[C@@]4(C)[C@H]4C[C@@H]5O[C@@H]5OC=C[C@@]54O)[C@H]4[C@]1(CO[C@]4(O)C(=O)OC)[C@@H]32	6.06
O=c1ccc2ccccc2o1	4.03
CCOc1cc(NC(C)=O)ccc1C(=O)OC	3.07
Cc1cc(C)c(C)cc1C	5.45
O=C1CN(/N=C/c2ccc([N+](=O)[O-])o2)C(=O)N1	3.51
Cc1ccc2sccc2c1	4.03
CCNc1nc(NCC)nc(SC)n1	3.63
CC[C@H]1OC(=O)[C@H](C)[C@@H](O[C@H]2C[C@@](C)(OC)[C@@H](O)[C@H](C)O2)[C@H](C)[C@@H](O[C@@H]2O[C@H](C)C[C@H](N(C)C)[C@H]2O)[C@](C)(OC)C[C@@H](C)C(=O)[C@H](C)[C@@H](O)[C@]1(C)O	4.6
